2 compounds from patent publication US20230270867A1, “CONJUGATE IN WHICH FL118 DRUG IS LINKED TO ACID-SENSITIVE LINKER, AND IMMUNOCONJUGATE USING SAME” (PINOTBIO, INC., priority 2020, published 2023) can be followed below.

In test [1] the test system is various cancer cell lines. The test is described as follows: Cytotoxicity of FL118 in various cancer cell lines. Type of test: cell-based. The following applies: 140 cell lines originating from various cancers; against most cancer cells.
Another test concerns MDA-MB-468 cells. The test can be described thus: In vivo drug efficacy, MDA-MB-468 xenograft model (sacituzumab / Example 9). Further details: species or system mice. The following applies: MDA-MB-468 model, Group 2, dose not given.

One may read the IC50 as the concentration at which inhibition is half-maximal. A low value points to inhibition by little substance. `CCC1(O)C(=O)OCc2c1cc1n(c2=O)Cc2cc3cc4c(cc3nc2-1)OCO4` (stereo in doubt) [FL118, (4S)-4-ethyl-4-hydroxy-8,9-methylenedioxy-1H-pyrano[3′,4′:6,7]indolizino[1,2-b]quinoline-3,14(4H,12H)-dione] had an IC50 in test [1] of less than 100 nM.

By TGI is commonly meant how far tumour growth fell short of that in controls. Read a high TGI as much slowing of growth. In the test on MDA-MB-468 cells (Day 0), “sacituzumab: Trop-2 target antibody; control” gave a Tumor volume of 200.20 ± 30.90 mm^3. For the same compound, in the test with MDA-MB-468 cells (Day 21), the TGI is listed as 43.6% and the Tumor volume came out at 433.08±126.82 mm^3.
